# Measured values: patent publication US20220000117A1, “METHOD FOR CONTROLLING DISEASES IN SMALL GRAIN CEREALS, SEED OF SMALL GRAIN CEREALS, AND METHOD FOR SUPPRESSING LODGING DAMAGE IN SMALL GRAIN CEREALS” (KUMIAI CHEMICAL INDUSTRY CO., LTD., priority 2019, published 2022)
# What was measured:
# powdery mildew [1] = experiment: Test Example 1: control test of wheat powdery mildew, field, wheat variety Haruyutaka; assay type: in vivo, Blumeria graminis; details: Foliage Treatment, spray 125 g/ha three times; flag leaves, 79 days after seeding
# Experimental: Seed of wheat (variety: Haruyutaka) sterilized in advance with commercial Benlate T wettable powder 20 (“Benlate” is a registered trademark) was used. In Example 1, seed having a mass of 1 kg was mixed into 100 ml of suspension water containing 5 g of dichlobentiazox, air-dried, and then, stripe-sown in a field with a furrow width of 30 cm and a ratio of 163 kg/ha (417 seeds/m^2). In contrast, in Comparative Example 1, seed which had not treated with dichlobentiazox was sown in a field in the same manner, and a spray solution corresponding to that obtained by suspending 500 g of dichlobentiazox in 200 liters of water per 1 ha was sprayed on foliage of wheat three times, during an ear emergence period (63 days after seeding), a flowering period (70 days after seeding), and a flowering end period (77 days after seeding). Similarly, in place of 500 g of dichlobentiazox in Comparative Example 1, 250 g of azoxystrobin (commercial Amistar 20 flowable was used. “Amistar” is a registered trademark) was used in Comparative Example 2, and 125 g of propiconazole (commercial Tilt emulsifiable concentrate 25 was used, “Tilt” is a registered trademark) was used in Comparative Example 3. The presence or absence of disease occurrence and a lesion area ratio of powdery mildew in flag leaves of 30 stems were investigated 79 days after seeding according to the criteria in Table 1, and a disease leaf rate and the degree of disease occurrence were calculated by the following calculation formula (1).
# (§1) Degree of Disease Occurrence=Σ(Index×Number of Leaves of Index)/(4×Number of Investigated Leaves)×100 (1)
# [2] = system: wheat (variety: Haruyutaka); experiment: Test Example 6: evaluation test of shortening of wheat (culm length, seed yield), field; assay type: in vivo; details: Propiconazole foliage spray 125 g/ha three times only, no seed treatment
# powdery mildew [3] = experiment: Test Example 5: control test of wheat powdery mildew, field, wheat variety Haruyutaka; assay type: in vivo, Blumeria graminis; details: for Degree of Disease Occurrence / Disease Leaf Rate (%): Seed Treatment 2.5 g/Seed 1 kg (250 g/ha), leaves just below flag leaves, 85 days after seeding
# Experimental: as §1
# Seed of wheat (variety: Haruyutaka) sterilized in advance with commercial Benlate T wettable powder 20 (“Benlate” is a registered trademark) was used. In Examples 12, 13, and 14, seed having a mass of 1 kg was mixed into 50 ml of suspension water containing 2.5 g or 1.25 g of dichlobentiazox or 50 ml of suspension water containing 2.5 g of isotianil, air-dried, and then, stripe-sown in a field with a furrow width of 30 cm and a ratio of 100 kg/ha (300 seeds/m^2). Moreover, in Comparative Example 14, seed having a mass of 1 kg was mixed into 50 ml of suspension water containing 2.5 g of tiadinil (commercial V-GET flowable was used, “V-GET” is a registered trademark), air-dried, and then, stripe-sown in a field with a furrow width of 30 cm and a ratio of 100 kg/ha (300 seeds/m^2). The presence or absence of disease occurrence and a lesion area ratio of powdery mildew in leaves just below hag leaves (next leaves) of 30 stems were investigated 85 days after seeding by according to the criteria in Table 1, and a disease leaf rate and the degree of disease occurrence were calculated by the above calculation formula(1).
# septoria leaf blotch = experiment: Test Example 7: control test of septoria leaf blotch of wheat, field, wheat variety TRAPEZ; assay type: in vivo, Septoria tritici; details: for Degree of Disease Occurrence: flag leaves, 219 days after seeding
# Experimental: as §1
# Seed of wheat (variety: TRAPEZ) was used. On seed having a mass of 1 kg, 20 ml of suspension water containing 0.5 g or 5 g of dichlobentiazox or isotianil was sprayed. In Examples 16, 17, and 18, the seed treated with the chemical was stripe-sown with a ratio of 100 kg/ha. In contrast, in Comparative Example 17, seed which had not treated with dichlobentiazox or isotianil was sown in a field in the same manner, and a spray solution corresponding to that obtained by suspending 750 g of chlomthalonil (commercial FUNGISTOP was used, “FUNGISTOP” is a registered trademark) in 200 liters of water per 1 ha was sprayed on foliage of wheat 154 days and 184 days after seeding. The severity of disease occurrence of septoria leaf blotch in flag leaves of 25 stems was investigated 219 days after seeding according to the criteria in Table 1, and the degree of disease occurrence was calculated by the above calculation formula (1).
# [4] = system: wheat (variety: Norin No. 61); experiment: Test Example 3: emergence rate of wheat seed; assay type: in vivo
# Experimental: (§2) Seed having a mass of 1 kg of wheat (variety: Norin No. 61) was mixed into 100 ml of suspension water containing 5 g or 0.5 g of dichlobentiazox or isotianil and air-dried, and then, 12 seeds were sown in a plastic cup having a diameter of 6 cm containing river sand and managed in a greenhouse. The number of emerged seeds was investigated nine days after seeding, and an emergence rate was calculated (Examples 6 to 9). In Comparative Examples 6 to 9, 20 ml of suspension water of an active ingredient, which had been adjusted to have a concentration shown in Table 4, was sprayed in a frame of 45 cm×45 cm in which a pot of wheat seedlings was placed (corresponding to 1000 L/ha) 14 days after seeding. On day 14 after seeding, conidiospores of powdery mildew were sifted over leaves of wheat seedlings and inoculated onto the leaves (after the sprayed liquid was dried in the case of Comparative Examples), a lesion area ratio of powdery mildew in a first leaf was investigated 19 days after seeding according to the criteria in Table 1, and the degree of disease occurrence was calculated by the above calculation formula (1).
# powdery mildew [5] = experiment: Test Example 3: control test of wheat powdery mildew, cup in greenhouse, inoculated; assay type: in vivo, Blumeria graminis; set-up: key to Degree of Disease Occurrence: Σ(index×no. leaves of index)/(4×no. investigated leaves)×100; details: for Degree of Disease Occurrence: 19 days after seeding
# Experimental: as §1, §2
# [6] = system: wheat (variety: Norin No. 61); experiment: Test Example 2: emergence rate of treated wheat seed; assay type: in vivo; details: 10 days after seeding
# Experimental: (§3) Seed having a mass of 1 kg of wheat (variety: Norin No. 61) was mixed into 100 ml of suspension water containing 5 g or 0.5 g of dichlobentiazox or isotianil (commercial Routine flowable was used, “Routine” is a registered trademark) and air-dried, and then, 15 seeds were sown in a plastic pot of 9 cm×9 cm containing horticultural soil and managed in a greenhouse. The number of emerged seeds was investigated 10 days after seeding, and an emergence rate was calculated (Examples 2 to 5). On day 49 after seeding, conidiospores of powdery mildew were sifted over leaves of wheat seedlings and inoculated onto the leaves, a lesion area ratio of powdery mildew in a first leaf was investigated 59 days after seeding according to the criteria in Table 1, and the degree of disease occurrence was calculated by the above calculation formula (1).
# powdery mildew [7] = experiment: Test Example 2: control test of wheat powdery mildew, pot in greenhouse, inoculated, wheat variety Norin No. 61; assay type: in vivo, Blumeria graminis; details: for Degree of Disease Occurrence: inoculated day 49, first leaf, 59 days after seeding
# Experimental: as §1, §3
# [8] = Seed Treatment 0.5 g/Seed 1 kg (50 g/ha)
# [9] = Seed Treatment 5 g/Seed 1 kg (500 g/ha)
structure (smiles),measurement,setting,value
"CCCC1COC(Cn2cncn2)(c2ccc(Cl)cc2Cl)O1 (centres unmarked) [Propiconazole, propiconazole, reference compound]",Degree of Disease Occurrence,powdery mildew [1],4.4
same,Disease Leaf Rate (%),powdery mildew [1],32.2%
same,Culm Length (cm),[2]; harvested 106 days after seeding,82.5 cm
same,Seed Yield,"[2]; wheat in 3 m2, 106 days after seeding",990 g
"Cc1ccc(NC(=O)c2snnc2C)cc1Cl [Tiadinil, tiadinil, reference compound]",Degree of Disease Occurrence,powdery mildew [3],11.0
same,Disease Leaf Rate (%),powdery mildew [3],33.3%
"N#Cc1c(Cl)c(Cl)c(Cl)c(C#N)c1Cl [Chlorothalonil, chlorothalonil, reference compound]",Degree of Disease Occurrence,"septoria leaf blotch; Foliage Treatment, spray 750 g/ha two times (154 and 184 days after seeding)",3.1
"N#Cc1ccccc1NC(=O)c1snc(Cl)c1Cl [Compound (10), Isotianil]",Degree of Disease Occurrence,septoria leaf blotch; [8],2.1
same,"disease occurrence of septoria leaf blotch, seed treatment compared with foliage spraying of chlorothalonil",septoria leaf blotch; seed treatment,more suppressed
same,Emergence Rate (%),"[4]; Foliage Treatment group, spray 50 ppm (50 g/ha) 14 days after seeding, emergence counted nine days after seeding",97%
same,Emergence Rate (%),"[4]; Foliage Treatment group, spray 500 ppm (500 g/ha) 14 days after seeding, emergence counted nine days after seeding",100%
same,Emergence Rate (%),"[4]; Seed Treatment 0.5 g/Seed 1 kg (50 g/ha), nine days after seeding",100%
same,Emergence Rate (%),"[4]; Seed Treatment 5 g/Seed 1 kg (500 g/ha), nine days after seeding",83.3%
same,Degree of Disease Occurrence,"powdery mildew [5]; Foliage Treatment, spray 50 ppm suspension water (50 g/ha) day 14, first leaf",47.2
same,Degree of Disease Occurrence,"powdery mildew [5]; Foliage Treatment, spray 500 ppm suspension water (500 g/ha) day 14, first leaf",27.8
same,Degree of Disease Occurrence,"powdery mildew [5]; Seed Treatment 0.5 g/Seed 1 kg (50 g/ha), inoculated day 14, first leaf",23.5
same,Degree of Disease Occurrence,"powdery mildew [5]; Seed Treatment 5 g/Seed 1 kg (500 g/ha), inoculated day 14, first leaf",4.4
same,"disease occurrence of powdery mildew, seed treatment compared with spraying on foliage during a growing period",powdery mildew [5]; seed treatment,suppressed lower
same,Emergence Rate (%),[6]; [8],96%
same,Emergence Rate (%),[6]; [9],100%
same,Degree of Disease Occurrence,powdery mildew [3],1.0
same,Disease Leaf Rate (%),powdery mildew [3],4.4%
same,"disease occurrence of powdery mildew, seed treatment compared with seed treatment with tiadinil",powdery mildew [3]; seed treatment,suppresses the disease occurrence of powdery mildew lower
same,Degree of Disease Occurrence,powdery mildew [7]; [8],7.6
same,Degree of Disease Occurrence,powdery mildew [7]; [9],7.1
same,disease occurrence under artificial inoculation of powdery mildew,powdery mildew [7]; seed treatment,the disease occurrence was suppressed
